# Laboratory results as given in PubChem BioAssay AID743334 (Broad Institute, 2014).
# Activity calls are given as the source filed them.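 How the source made its calls: active means curve reaches 40% rise within the top valid dose, in every run; inconclusive means runs give conflicting calls; inactive means opposite-direction activity, or every run inactive.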
# Tested on: C2C12 myotubes ATP, CellTiter-Glo luminescence, 48 h
# Assay: ATP change in C2C12 myotubes without statin, dose response, counter-screen for statin myotoxicity suppressor project, cell-based, no simvastatin, luminescence, dry powder (AID 743334)
# Details: not given
row,SMILES,AC40
1,C[C@@H]1CN([C@@H](C)CO)C(=O)c2cc(NC(=O)Nc3cccc4ccccc34)ccc2O[C@@H]1CN(C)Cc1ccc(C(=O)Nc2ccccc2N)cc1,> 21 µM (inactive)
2,N#C[C@@H]1[C@@H](c2ccc(-c3cccc(F)c3)cc2)[C@H](CO)N1C(=O)NC1CCCC1,> 21 µM (inactive)
3,C[C@H](CO)N1C[C@H](C)[C@H](CN(C)CC2CCCCC2)Oc2ccc(NC(=O)CCCCCC(=O)Nc3ccccc3N)cc2CC1=O,> 19.5 µM (inactive)
4,C[C@H]1CN([C@@H](C)CO)C(=O)c2cc(C#Cc3ccncc3)cnc2O[C@@H]1CN(C)CC1CCCC1,> 19.5 µM (inactive)
5,COc1ccc(S(=O)(=O)Nc2ccc3c(c2)CC(=O)N([C@H](C)CO)C[C@H](C)[C@@H](CN(C)Cc2ccc(Cl)c(Cl)c2)O3)cc1,> 19.5 µM (inactive)
6,COc1ccc(CN(C)C[C@H]2Oc3ccc(NS(=O)(=O)c4ccc(Cl)cc4)cc3CC(=O)N([C@@H](C)CO)C[C@@H]2C)cc1,> 19.5 µM (inactive)
7,C[C@H]1CN([C@@H](C)CO)C(=O)Cc2cc(NC(=O)CCCCCC(=O)Nc3ccccc3N)ccc2O[C@H]1CN(C)Cc1ccccc1,18 µM (inactive)
8,C[C@H](CO)N1C[C@H](C)[C@@H](CN(C)Cc2ccc(Cl)c(Cl)c2)Oc2ccc(NC(=O)C3CC3)cc2CC1=O,> 19.5 µM (inactive)
9,C[C@H]1CN([C@@H](C)CO)C(=O)c2cc(NC(=O)Nc3cccc4ccccc34)ccc2O[C@H]1CN(C)Cc1ccc(C(=O)Nc2ccccc2N)cc1,> 19.5 µM (inactive)

# Tested on: not listed separately
# Assay: as above
# Details: C2C12 myotubes ATP, CellTiter-Glo luminescence, 48 h; at 19.5 µM (top of the series)
row,SMILES,"ATP level change, positive = increase"
1,Cc1noc(C)c1S(=O)(=O)Nc1ccc2c(c1)CC(=O)N([C@H](C)CO)C[C@H](C)[C@@H](CN(C)Cc1ccc(C(F)(F)F)cc1)O2,10.6% (inactive)
2,COc1ccc(S(=O)(=O)N(C)C[C@H]2Oc3c(NC(=O)Nc4ccccc4)cccc3C(=O)N([C@H](C)CO)C[C@H]2C)cc1,7.7% (inactive)
3,C[C@H](CO)N1C[C@H](C)[C@@H](CN(C)Cc2ccc(Oc3ccccc3)cc2)Oc2c(NC(=O)Nc3cccc4ccccc34)cccc2C1=O,8.68% (inactive)
4,C[C@@H]1CN([C@H](C)CO)C(=O)Cc2cc(NS(=O)(=O)c3ccc(Cl)cc3)ccc2O[C@H]1CN(C)Cc1ccccc1,13% (inactive)

# Same assay, conditions: C2C12 myotubes ATP, CellTiter-Glo luminescence, 48 h; at 21 µM (top of the series)
row,SMILES,"ATP level change, positive = increase"
1,C[C@H]1CN([C@@H](C)CO)C(=O)Cc2cc(NC(=O)CCCCCC(=O)Nc3ccccc3N)ccc2O[C@H]1CN(C)Cc1ccc(C(F)(F)F)cc1,5.44% (inactive)

# Same assay, conditions: C2C12 myotubes ATP, CellTiter-Glo luminescence, 48 h; stronger effect = higher value
row,SMILES,max activity
1,COc1ccc(C#Cc2cnc3c(c2)C(=O)N([C@H](C)CO)C[C@H](C)[C@H](CN(C)Cc2ccccc2)O3)cc1OC,15.6% (inactive)
2,C[C@H](CO)N1C[C@H](C)[C@H](CN(C)Cc2ccc(Oc3ccccc3)cc2)Oc2ccc(NC(=O)CCCCCC(=O)Nc3ccccc3N)cc2CC1=O,-48.9% (inactive)
3,COc1ccc(S(=O)(=O)Nc2ccc3c(c2)CC(=O)N([C@H](C)CO)C[C@@H](C)[C@H](CN(C)CC2CCCCC2)O3)cc1,-10.2% (inactive)
4,C[C@H](CO)N1C[C@H](C)[C@@H](CN(C)Cc2ccc(C(=O)Nc3ccccc3N)cc2)Oc2ccc(NC(=O)Cc3cn(C)c4ccccc34)cc2C1=O,-9.11% (inactive)
5,N#C[C@@H]1[C@H](c2ccc(-c3cccc(F)c3)cc2)[C@@H](CO)N1C(=O)NC1CCCC1,-0.345% (inactive)
6,C[C@H]1CN([C@@H](C)CO)C(=O)Cc2cc(NC(=O)CCCCCC(=O)Nc3ccccc3N)ccc2O[C@H]1CN(C)Cc1ccc(Oc2ccccc2)cc1,-10.2% (inactive)
7,CCCNC(=O)N1[C@H](CO)[C@H](c2ccccc2)[C@@H]1C#N,-8.33% (inactive)
8,N#C[C@H]1[C@H](c2ccc(-c3cccc(F)c3)cc2)[C@@H](CO)N1C(=O)NC1CCCC1,1.15% (inactive)
9,N#C[C@@H]1[C@@H](c2ccccc2-c2ccc(F)cc2)[C@H](CO)N1C(=O)NC1CCCC1,-6.02% (inactive)
